Data taken from a melting point compilation (Tetko et al.; mined from patent text by program, amines drawn as free bases though some values may be those of a salt).

Row | Structure (SMILES) | melting point [°C]
1 | Cc1ccc(S(=O)(=O)NC(=O)CC(=O)O)cc1 | 80
2 | CN(C)c1cccc(-c2nc3ncccc3o2)c1 | 208 to 209
3 | O=C(CCc1nc(-c2ccc(Cl)cc2)co1)OCc1ccccc1 | 66 to 67
4 | COC(c1nnco1)c1ccccc1COc1ccc(Cl)cc1C (centres undefined) | 68 to 70
5 | CC(C)Oc1cccc(-n2c(NN)nc3ccccc3c2=O)c1 | 158 to 160
6 | COc1ccc(C=C2NC(=O)NC2=O)cc1 | 242 to 244
7 | CN(CC(=O)NO)S(=O)(=O)Cc1cccc(C(F)(F)F)c1 | 128 to 129
8 | CCCC1=C(C(=O)OCC)C(c2ccccc2N)c2c[nH]nc2N1 (centres undefined) | 179
9 | COC[C@H]1CCCN1NC(=O)Nc1cccc2c1C(=O)c1c-2n[nH]c1-c1ccc(C(=O)N2CCN(C(=O)OC(C)(C)C)CC2)s1 | > 300
10 | COc1ccc(C(=O)N2c3ccccc3C(N3CCSc4ccccc43)CC2C)cc1OC (centres undefined) | 113 to 114
11 | CCCOC(=O)c1cc(OC)c(OC)c(OCC)c1-c1c(C(=O)OC)cc(OC)c2c1OCO2 | 74.5 to 76
12 | O=C1CCC(N2C(=O)c3cccc(OCc4ccc(CN5CCN(S(=O)(=O)C(F)(F)F)CC5)cc4)c3C2=O)C(=O)N1 (centres undefined) | 229 to 231
13 | CCCCCN(CCC12CC3CC(CC(C3)C1)C2)C(=O)NCCCc1ccccn1 | 84.4 to 85.7
14 | O=C(O)COc1ccc(SCc2cc(-c3ccc(Cl)cc3)on2)c2c1CCC2 | 112 to 114
15 | Clc1ncnc2c1c(Nc1ccccc1)nn2Cc1ccccc1 | 135
16 | CCc1ccccc1-c1cccc2[nH]c(C(=O)O)cc12 | 230 to 233
17 | CNCc1cc2cc(Nc3nc(N)n(C(=O)c4cccc(C)c4)n3)ccc2o1 | 128 to 131
18 | c1ccc(-c2cc3nnc(-c4ccccc4)n3nc2OCc2cn[nH]n2)cc1 | 208 to 220
19 | CC(CC(=O)NCCc1ccc(C(=O)O)cc1)(c1ccccc1)c1ccccc1 | 211
20 | CCOC(=O)CC(C)(O)c1ccc(-c2ccccc2)cc1 (centres undefined) | 58 to 60
21 | O=C(CCCO)N1CCCCC1 | 31 to 33
22 | O=c1nc(-c2ccccn2)sc2ncccc12 | 235
23 | CN1CCN(c2ccccc2C=C2CCN(c3ccc(C(F)(F)F)cc3)C2=O)CC1 | 186 to 189

Row | Structure (SMILES) | melting point [°C]
24 | COC1=C(OC)C(=O)C2=C(CC(CCCCOc3ccc(C(=O)N(C)C)cc3)C2)C1=O | 80 to 83
25 | O=C(c1ccccc1)C1C=C(Cl)C=CC1(F)NCCO (centres undefined) | 96 to 101
26 | CSc1cc(OCCC[Si](C)(C)C)c(Cl)cc1[N+](=O)[O-] | 51 to 53
27 | CC1(C(=O)Cn2cncn2)CC1 | 58
28 | CCOP(=O)(CCN1CCC(N(CCN)S(=O)(=O)c2ccc(Nc3nccc(Nc4ccc(F)c(F)c4)n3)cc2)CC1)OCC | 88 to 90
29 | CCC1c2cc3c(cc2C(C=Cc2ccc(NC(C)=O)cc2)=NN(C(C)=O)C1C)OCO3 (centres undefined) | 137 to 140
30 | COc1cc2c(=O)n(NS(C)(=O)=O)c(=O)[nH]c2cc1[N+](=O)[O-] | > 280
31 | CC(=O)NCCOC1=C2C=C(S(N)(=O)=O)SC2S(=O)(=O)CC1 (centres undefined) | 177 to 181
32 | NCC(c1ccc(Cl)cc1)C1CCCCCC1O (mixture of isomers) | 92 to 93
33 | Cn1[nH]c(=O)n(-c2cc(F)c(C(=O)Cl)cc2F)c1=O | > 250
34 | NC(N)=Nc1nc(-c2nc(N)sc2C=NS(N)(=O)=O)cs1 | > 300
35 | CN1Cc2c(C(=O)NN)ncn2-c2ccc(F)c(Cl)c2C1=O | 308 to 310
36 | CCCCc1nc2cccnc2n1Cc1ccc2c(Cl)c(C(=O)O)sc2c1 | > 260
37 | CCCCCCCCOc1ccc(C(C)(C)CC(C)(C)C)cc1S(=O)(=O)NCC(C)c1nn2nc(C)c(Cl)c2[nH]1 (centres undefined) | 135 to 137
38 | CCc1cc(C=C[N+](=O)[O-])c(OC)nc1C | 105 to 107
39 | CC(C)(C)CC(C)(C)c1ccc(Oc2cc3nc(-c4ccccc4)oc3cc2[N+](=O)[O-])cc1 | 183 to 185
40 | CCCCCc1c(/C=C/C(=O)Oc2ccc([N+](=O)[O-])cc2)sc2cc(OC)ccc12 | 111 to 113
41 | COc1cccc(-c2nc3c(C(N)=O)cccc3[nH]2)c1 | 93 to 94
42 | COc1cc2nc(Cl)nc(-c3cccc([N+](=O)[O-])c3)c2cc1OC | 228 to 230
43 | CCN1CCCC1CNC(=O)Cc1ccc(-c2ccc3c(=O)c(-c4ncc[nH]4)c(N)n(CC)c3n2)cc1F (centres undefined) | 100
44 | CC(C)ON=C(c1cccc(O)c1)n1cncn1 | 160 to 163
45 | CCc1ccc(CC2CNC(=O)O2)cc1 (centres undefined) | 133 to 134
46 | COc1ccc([C@@H]2O[C@H](CCC(=O)O)C(=O)N(Cc3ccccc3)c3ccccc32)cc1 (relative stereo) | 107 to 109

Row | Structure (SMILES) | melting point [°C]
47 | O=C(Nc1ccccc1)O[C@@H]1CN=C(c2ccc(NC(=O)C(F)(F)F)cc2)O[C@H]1c1ccccc1 (racemic) | 210
48 | CN(C(F)(F)C(F)F)S(=O)(=O)c1ccccc1S(N)(=O)=O | 102 to 107
49 | Cn1c(C(F)(F)F)ccc(-c2ccc(F)cc2F)c1=O | 123 to 124
50 | COc1cc(OCc2c(C)noc2C)c(C=CC(=O)c2ccc(C(=O)O)cc2)cc1-c1cccs1 | 213 to 215
51 | O=C1CCC(c2ccc(F)cc2)c2ccccc2N1 (centres undefined) | 209 to 212
52 | CC(C)CCC1(c2ccccc2)CC(O)=C(Sc2ccccc2)C(=O)O1 (centres undefined) | 154 to 155
53 | COc1ccc(CNc2ccc(C(=O)Nc3cccc4cc(C(=O)Nc5cc(C(C)(C)C)cc(NS(C)(=O)=O)c5OC)sc34)cn2)cc1 | 137 to 139
54 | O=c1cc(-c2ccccc2)oc(=O)[nH]1 | > 210
55 | CC(C)Oc1ccc(COc2ccc(CC(=O)O)cc2Cl)cc1 | 115 to 116
56 | OCc1csc(Nc2ccccc2)n1 | 115 to 118
57 | CC1(COc2cccc(-c3noc4ccsc34)c2)CO1 (centres undefined) | 84 to 85
58 | CC(C)(C)OC(=O)NCC(=O)N1CCC[C@H]1C(=O)O | 140 to 143
59 | CC1(C)N(C=O)CC(=O)N1CC(N)=O | 211 to 213
60 | CCc1nc2c(cnn2CC)c(NC2CCOCC2)c1CNC(=O)c1cccc(C(=O)NCc2ccc(C)c(-c3cccc(C=O)c3)c2)c1 | 114 to 117
61 | COC(=O)[C@H](Cc1ccc(NC(=S)NCCCc2ccccc2)cc1)NC(=O)[C@@H]1CCCN1S(=O)(=O)c1ccc(C)cc1 | 74 to 80
62 | CNC(=O)c1ccc(C=CC(=O)NCC(=O)N(C)c2ccc(Cl)c(COc3cccc4c(OCC(=O)O)cc(C)nc34)c2Cl)cc1 | 233 to 257
63 | CCS(=O)Cc1cccc(-c2nc(=O)c3ccccc3s2)n1 (centres undefined) | 188 to 190
64 | O=C(O)C1CN(S(=O)(=O)c2ccc3cc(Br)ccc3c2)CCN1C(=O)C1CCN(c2ccncc2)CC1 (centres undefined) | 216 to 222
65 | Cn1nnc2cccc(S(N)(=O)=O)c21 | 198 to 200
66 | COC(=O)c1ccc(OC)nc1OC | 52 to 54
67 | CC(C)(C)c1nc2cc(N3CCOCC3)c([N+](=O)[O-])cc2s1 | 119 to 121
68 | COc1cc(OC)nc(C(C#N)c2ccccc2[N+](=O)[O-])n1 (centres undefined) | 88 to 89
69 | CC1(C)OCc2cc([C@@H](O)C(=O)N[C@H]3CCc4ccc(O)cc4C3)ccc2O1 | 169 to 170
